We go through two molecules from US9447187B2, “Use of an anti-CD200 antibody for prolonging the survival of allografts” (Alexion Pharmaceuticals, Inc., priority 2011, dated 2016).

The test system of the assay is cardiac allograft (C57BL/6 to BALB/c mice). Briefly: C57BL/6 to BALB/c fully MHC-mismatched mouse heart transplantation model (graft survival, pulsation). Type of assay: in vivo. On the procedure: The studies described in this section examined graft survival in a C57BL/6 to BALB/c fully MHC-mismatched mouse heart transplantation model. Each experimental group included 4-6 animals. Some of the experimental groups were treated with antibodies. […] Antibody 4 is a control, murine monoclonal antibody that shares a variable region with Antibody 2. […]
An experiment was also performed to evaluate whether use of an anti-CD200 antibody can reduce the duration or amount of mycophenolate mofetil that is necessary to prolong the survival of an allograft in a recipient mammal. First, a pilot experiment was performed to determine the dose of, and duration of, mycophenolate mofetil required to prolong allograft survival in mice. As described in Example 3, these studies examined graft survival in a C57BL/6 to BALB/c fully MHC-mismatched mouse heart transplantation model. Each experimental group included five (5) animals. The three experimental groups were treated as follows:
Group 1-PE (pilot experiment): cardiac allograft-bearing mice were orally administered mycophenolate mofetil at a dose of 120 mg/kg each day of the study beginning at the time of transplant;
Group 2-PE: cardiac allograft-bearing mice were orally administered mycophenolate mofetil at a dose of 80 mg/kg each day of the study beginning at the time of transplant; and
Group 3-PE: cardiac allograft-bearing mice were orally administered FK-506 at a dose of 16 mg/kg for each day of the study beginning at the time of transplant. […]
As described in Example 3, these studies examined graft survival in a C57BL/6 to BALB/c fully MHC-mismatched mouse heart transplantation model. Each experimental group included five (5) animals. The five experimental groups were treated as follows: […]
As described in Example 3, these studies examined graft survival in a C57BL/6 to BALB/c fully MHC-mismatched mouse heart transplantation model. Each experimental group included five (5) animals. The three experimental groups were treated as follows, with treatment beginning at the time of transplantation: […]

“And” between values parts separate entries of the source, which are not always exact repeats. Identical values can stand only once.

Consider `C=CC[C@@H]1/C=C(\C)C[C@H](C)C[C@H](OC)[C@H]2O[C@@](O)(C(=O)C(=O)N3CCCC[C@H]3C(=O)O[C@H](/C(C)=C/[C@@H]3CC[C@@H](O)[C@H](OC)C3)[C@H](C)[C@@H](O)CC1=O)[C@H](C)C[C@@H]2OC` [FK-506, tacrolimus], for which the “Individual Survival” value (FK-506 alone, 16 mg/kg orally each day of the study, 16 mg/kg) is 23 days and 25 days (2×) and 26 days and 27 days.

For the molecule `COc1c(C)c2c(c(O)c1C/C=C(\C)CCC(=O)OCCN1CCOCC1)C(=O)OC2` [mycophenolate mofetil], the “Individual Survival” value is 18 days and 19 days and 20 days and 22 days (2×) (mycophenolate mofetil alone, 80 mg/kg orally each day of the study (pilot experiment), 80 mg/kg); 20 days and 21 days and 22 days and 23 days and 25 days (mycophenolate mofetil alone, 120 mg/kg orally each day of the study (pilot experiment), 120 mg/kg). Further, the “Mean Survival” value (mycophenolate mofetil alone, 80 mg/kg orally each day of the study (pilot experiment), listed as MMF, 80 mg/kg) was “approximately 20.2 days”.
